In paper PMC9916806, “Tachykinin Receptor-Selectivity of the Potential Glioblastoma-Targeted Therapy, DOTA-[Thi^8,Met(O2)^11]-Substance P” (International Journal of Molecular Sciences, 2023):
Values belong to the compound of their own block, whether it stands above or below them.

Assays:
NK3R [1] = molecular target: T1, NK3R (Homo sapiens, UniProt P29371); assay: NK3R antagonism, IP accumulation assay; type: cell-based; settings: 1 µM compound, 30 min pre-incubation at 37 °C, then 30 nM NKB 1 h; Figure 4; n = 4 (talnetant: two experiments)
T1 construct: host or cells: HEK293-T
T1 sequence (P29371 1-465): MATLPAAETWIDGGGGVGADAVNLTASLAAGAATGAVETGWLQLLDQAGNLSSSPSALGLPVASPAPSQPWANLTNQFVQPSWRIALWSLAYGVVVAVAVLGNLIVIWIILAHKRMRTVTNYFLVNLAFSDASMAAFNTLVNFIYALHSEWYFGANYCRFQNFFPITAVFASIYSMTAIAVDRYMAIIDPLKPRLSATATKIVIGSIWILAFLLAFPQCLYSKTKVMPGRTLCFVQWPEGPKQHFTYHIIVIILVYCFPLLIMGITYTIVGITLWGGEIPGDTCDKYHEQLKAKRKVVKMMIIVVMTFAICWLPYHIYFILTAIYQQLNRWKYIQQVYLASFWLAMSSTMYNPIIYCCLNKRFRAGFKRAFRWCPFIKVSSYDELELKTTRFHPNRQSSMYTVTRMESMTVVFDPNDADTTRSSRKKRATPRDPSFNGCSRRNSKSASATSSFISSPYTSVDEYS
Source text: (§1) pcDNA mammalian expression vectors encoding human NK3R (GenBank accession number: AY462098), NK2R (GenBank accession number: AY322545), NK1R (GenBank accession number: AY462099) and MRGPRX2 (GenBank accession number: NM_054030) were obtained from the Bloomsburg University cDNA Resource Center (www.cdna.org [accessed on 18 October 2018]). The NK1R, NK2R and NK3R vectors included an N-terminal 3xHA epitope tag. The empty vector, pcDNA3.1, was obtained from Thermo Fisher Scientific (Waltham, MA, USA). […] Talnetant was kindly supplied by Dr Mike Trower (NeRRe Therapeutics, Stevenage, UK).
Modified human embryonic kidney cells (HEK293-T; American Tissue and Cell Culture Collection), which provide a ‘blank’ background (with little/no endogenous tachykinin receptor nor MRGPRX2 expression) and stably express large T-antigen for optimal expression of exogenous proteins, were utilised. Cells were cultured in a humidified atmosphere at 37 °C with 5% CO2 in Dulbecco’s Modified Eagle Medium containing GlutaMAX™ (DMEM) (Life Technologies, Carlsbad, CA, USA) supplemented with 10% foetal calf serum (FCS) (Life Technologies, Carlsbad, CA, USA). Cells were passaged regularly to maintain them at less than 80% confluence. […]

NK3R [2] = system: NK3R; design: method as in PMID 9190866; settings: ref [49]; cited from earlier work
Method: For single-concentration analyses, cells were incubated with 1 µM [NK1R, NK2R, NK3R and empty vector) or 10 µM [MRGPRX2 and empty vector]

NK1R [3] = settings: native tachykinins; ref [11],[13]; cited from earlier work
[4] = system: all three tachykinin receptors (NK1R, NK2R, NK3R); settings: albeit with differing potencies; ref [11],[13]; cited from earlier work
MRGPRX2 = settings: ref [14]; cited from earlier work
Source text: Glioblastoma multiforme is one of the most common and most aggressive forms of central nervous system tumour and, despite therapeutic advances, it remains largely incurable. […] SP is a member of the tachykinin family of neuropeptides, of which the other classical members are neurokinin-A (NKA) and ...

NK3R [5] = molecular target: T1, NK3R; assay: IP accumulation assay, NK3R activation (HEK293-T cells); type: cell-based; settings: 1 µM SP; Supplemental Figure S3, % of cognate native ligand (NKB) response; single experiment (n=1); also ref [11]
Source text: as §1
(§2) Modified human embryonic kidney cells (HEK293-T; American Tissue and Cell Culture Collection), which provide a ‘blank’ background (with little/no endogenous tachykinin receptor nor MRGPRX2 expression) and stably express large T-antigen for optimal expression of exogenous proteins, were utilised. […]
(§3) The tachykinin receptors elicit intracellular signalling responses primarily through coupling to, and the activation of, Gαq/11 G proteins. […] These can be isolated using ion exchange chromatography and their radioactivity measured, with the amount of radiolabelled IP generated (i.e., the level of radioactivity measured) being proportional to the signalling activity of the receptor [48]. […]

[6] = design: method as in PMID 31480582; settings: ref [19]; cited from earlier work
NK1R [7] = molecular target: T2, NK1R (Homo sapiens, UniProt P25103); assay: IP accumulation assay, NK1R activation (HEK293-T cells); type: cell-based; settings: HEK293-T cells transfected with NK1R, 1 h at 37 °C, mean ± SEM (n = 3)
T2 construct: host or cells: HEK293-T
Source text: as §1, §2, §3

[8] = design: method as in PMID 31480582; settings: ref [19]; cited from earlier work; remark: listed apart in the source
[9] = ref [29]; cited from earlier work
Source text: In glioblastoma multiforme NK1Rs are believed to be highly expressed on the tumour cells and also within the tumour neovasculature, conferring the ability to concurrently target vascular and neoplastic structures. […] However, its therapeutic effectiveness is fairly constra ...

T2 sequence (P25103 whole entry): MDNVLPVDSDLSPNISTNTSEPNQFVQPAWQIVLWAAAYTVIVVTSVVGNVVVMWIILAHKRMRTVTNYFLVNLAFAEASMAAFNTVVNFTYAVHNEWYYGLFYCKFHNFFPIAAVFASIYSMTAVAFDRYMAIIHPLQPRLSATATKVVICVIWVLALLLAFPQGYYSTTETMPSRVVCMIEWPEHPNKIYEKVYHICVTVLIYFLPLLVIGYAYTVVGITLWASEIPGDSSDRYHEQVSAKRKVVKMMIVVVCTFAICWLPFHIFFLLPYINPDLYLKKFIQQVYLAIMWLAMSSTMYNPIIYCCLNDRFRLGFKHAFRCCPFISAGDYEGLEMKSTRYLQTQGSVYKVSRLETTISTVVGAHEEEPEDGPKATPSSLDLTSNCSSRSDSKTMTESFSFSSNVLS

SMILES: CC[C@H](NC(=O)c1c(O)c(-c2ccccc2)nc2ccccc12)c1ccccc1 [talnetant, (S)-N-(1-phenylpropyl)-3-hydroxy-2-phenylquinoline-4-carboxamide]
inhibition of NK3R activation (NK3R [1]): NKB-induced NK3R activation was completely abolished | NK3R antagonism (NK3R [2]): non-peptide antagonist of the NK3R

NK3R response to SP (NK3R [5]): able to elicit a response
SMILES: CSCC[C@H](NC(=O)[C@H](CC(C)C)NC(=O)CNC(=O)[C@H](Cc1ccccc1)NC(=O)[C@H](Cc1ccccc1)NC(=O)[C@H](CCC(N)=O)NC(=O)[C@H](CCC(N)=O)NC(=O)[C@@H]1CCCN1C(=O)[C@H](CCCCN)NC(=O)[C@@H]1CCCN1C(=O)[C@@H](N)CCCNC(=N)N)C(N)=O [SP, Substance P]
affinity for NK1R (NK1R [3]): highest affinity for NK1R | agonism at all three tachykinin receptors [4]: full agonists | agonism at MRGPRX2 (MRGPRX2): low potency agonist

Emax (NK1R [7]; HEK-293T, Table 2, % of the maximal response elicited by SP (Figure 3)): 89 ± 1% | EC50 (NK1R [7]; Table 2, comparison of SP with DOTA-[Thi8,Met(O2)11]SP): 3.31 nM
SMILES: CC(C)C[C@H](NC(=O)CNC(=O)[C@H](Cc1cccs1)NC(=O)[C@H](Cc1ccccc1)NC(=O)[C@H](CCC(N)=O)NC(=O)[C@H](CCC(N)=O)NC(=O)[C@@H]1CCCN1C(=O)[C@H](CCCCN)NC(=O)[C@@H]1CCCN1C(=O)[C@H](CCCNC(=N)N)NC(=O)CN1CCN(CC(=O)O)CCN(CC(=O)O)CCN(CC(=O)O)CC1)C(=O)N[C@@H](CCS(C)(=O)=O)C(N)=O [DOTA-[Thi^8,Met(O2)^11]SP, 1,4,7,10-tetraazacyclododecane-1,4,7,10-tetraacetic acid-[Thi^8,Met(O2)^11]-SP]
in vivo half-life compared to native SP [6]: increased lipophilicity and in vivo half-life | lipophilicity compared to native SP [8]: increased lipophilicity | metabolic stability [9]: metabolically stable
